Series [1] has as its system Leishmania donovani. Kind of series: Antileishmanial activity against promastigotes-based model of Leishmania donovani MHOM/SD/62/1S-CL2D assessed as growth inhibition by measuring metabolism of resazurin to resorufin by aerobic respiration at 50 uM measured after 3 days relative to control. Type of series: functional. As to conditions: for inhibition: time 3.0 day; for inhibition at 50 µM: 72 h, time 3 day. (Alamar Blue is a resazurin reagent that responds to reducing activity.)

Series [2] has as its system Leishmania donovani. Description: Antileishmanial activity against promastigotes-based model of Leishmania donovani MHOM/SD/62/1S-CL2D assessed as growth inhibition by measuring metabolism of resazurin to resorufin by aerobic respiration at 25 uM measured after 3 days relative to control. To be noted: for inhibition: time 3.0 day; for inhibition at 25 µM: 72 h, time 3 day. In kind it is functional.

Series [3] is described as follows: Cytotoxicity against human THP-1 cells assessed as cell death by measuring metabolism of resazurin to resorufin measured after 3 days. In kind it is toxicity, cell-based. As to conditions: time 3 day.
Series [4] is described as follows: Cytotoxicity against human HEK293T cells assessed as cell death by measuring metabolism of resazurin to resorufin measured after 3 days. To be noted: time 3 day. In kind it is toxicity, cell-based, HEK-293T.

Calls of active or inactive are those of the source. No cut-off for these calls is given here. Where only a bound is given, the exact number is not on record here.

On to `CCNC(=O)C(=O)[C@H](Cc1ccccc1)NC(=O)c1[nH]c2ccccc2c(=O)c1C`, for which the inhibition entry in series [1] and in series [2] was “inactive” throughout.
`Cc1c(C(=O)N[C@@H](Cc2ccccc2)C(=O)C(N)=O)[nH]c2ccccc2c1=O`: the inhibition entry in series [1] and in series [2] was “inactive” each time.
As for `COc1ccc(CNC(=O)C(=O)[C@H](Cc2ccccc2)NC(=O)c2[nH]c3ccccc3c(=O)c2C)cc1`, the inhibition (usually the relative decrease from the control value, in per cent) at 50 µM in series [1] turned out to be 9%. The inhibition result in series [2] was “inactive”.
The matching figures for `COc1ccc(CNC(=O)C(=O)[C@H](Cc2ccccc2)NC(=O)c2[nH]c3ccccc3c(=O)c2C)cc1OC`: 38% and “inactive”.
As to `Cc1c(C(=O)N[C@@H](Cc2ccccc2)[C@@H](O)C(=O)NCCc2ccccc2)[nH]c2ccccc2c1=O`, the inhibition entry in series [1] and in series [2] was “inactive” in each case.
Regarding `Cc1c(C(=O)N[C@@H](Cc2ccccc2)C(=O)C(=O)NC(C)C)[nH]c2ccccc2c1=O`, the inhibition result in series [1] and in series [2] was “inactive” in each case.
In the case of `CNC(=O)[C@H](O)[C@H](Cc1ccccc1)NC(=O)c1[nH]c2ccccc2c(=O)c1C`, the inhibition at 50 µM in series [1] was 22%. Further, in series [2], the inhibition at 25 µM came to 1%.
As for `Cc1c(C(=O)N[C@@H](Cc2ccccc2)C(=O)C(=O)NCCc2ccccn2)[nH]c2ccccc2c1=O`, the inhibition entry in series [1] and in series [2] was “inactive” in each case.
For the molecule `CCNC(=O)[C@H](O)[C@H](Cc1ccccc1)NC(=O)c1[nH]c2ccccc2c(=O)c1C`, the inhibition at 50 µM in series [1] is 1%. Also, the inhibition result in series [2] is “inactive”.
With `Cc1c(C(=O)N[C@@H](Cc2ccccc2)[C@@H](O)C(N)=O)[nH]c2ccccc2c1=O`, the inhibition at 50 µM in series [1] stood at 51%. The inhibition at 25 µM in series [2] was 17%. The CC50 at 72 h in series [3] and in series [4] was greater than 200 µM throughout.
In the case of `COc1ccc(CNC(=O)[C@H](O)[C@H](Cc2ccccc2)NC(=O)c2[nH]c3ccccc3c(=O)c2C)cc1`, the inhibition at 50 µM in series [1] was 16%. In series [2], the inhibition entry is “inactive”.
The matching figures for `Cc1c(C(=O)N[C@@H](Cc2ccccc2)[C@@H](O)C(=O)NC(C)C)[nH]c2ccccc2c1=O`: 4% and “inactive”.
As to `Cc1c(C(=O)N[C@@H](Cc2ccccc2)[C@@H](O)C(=O)NCc2ccccc2)[nH]c2ccccc2c1=O`, the inhibition at 50 µM in series [1] is 91%. The inhibition at 25 µM in series [2] worked out at 53%. In addition, the CC50 (commonly the concentration giving 50% cytotoxicity) at 72 h in series [3] was 93 µM; in series [4], greater than 200 µM.
Turning to `CNC(=O)C(=O)[C@H](Cc1ccccc1)NC(=O)c1[nH]c2ccccc2c(=O)c1C`, the inhibition result in series [1] and in series [2] was “inactive” each time.
In the case of `Cc1c(C(=O)N[C@@H](Cc2ccccc2)C(=O)C(=O)NCc2ccccc2)[nH]c2ccccc2c1=O`, the inhibition at 50 µM in series [1] was 22%. In addition, the inhibition at 25 µM in series [2] was found to be 3%.
On to `COc1ccc(CCNC(=O)C(=O)[C@H](Cc2ccccc2)NC(=O)c2[nH]c3ccccc3c(=O)c2C)cc1`, for which the inhibition at 50 µM in series [1] was 23%. Moreover, the inhibition result in series [2] is “inactive”.
In the case of `CCCCCCCC/C=C\CCCCCCCCCCCCOP(=O)([O-])OCCC[N+](C)(C)C`, in series [1], the inhibition at 50 µM amounted to 108%. Also, the inhibition at 25 µM in series [2] came out at 106%. Also, the results for the CC50 at 72 h in series [3] and in series [4] were 2 µM and 28 µM, respectively.
`Cc1c(C(=O)N[C@@H](Cc2ccccc2)C(=O)C(=O)NCc2ccccn2)[nH]c2ccccc2c1=O`: the inhibition result in series [1] and in series [2] was “inactive” in each case.
For `Cc1c(C(=O)N[C@@H](Cc2ccccc2)[C@@H](O)C(=O)NCc2ccc(F)cc2)[nH]c2ccccc2c1=O`, the inhibition at 50 µM in series [1] came to 8%. Besides, the inhibition entry in series [2] was “inactive”.
Take `Cc1c(C(=O)N[C@@H](Cc2ccccc2)C(=O)C(=O)NCc2ccc(F)cc2)[nH]c2ccccc2c1=O`: the inhibition result in series [1] and in series [2] was “inactive” throughout.
For the molecule `Cc1c(C(=O)N[C@@H](Cc2ccccc2)[C@@H](O)C(=O)NCCc2ccccn2)[nH]c2ccccc2c1=O`, in series [1], the inhibition at 50 µM amounted to 31%. The inhibition at 25 µM in series [2] amounted to 8%.
Consider `COc1ccc(CCNC(=O)[C@H](O)[C@H](Cc2ccccc2)NC(=O)c2[nH]c3ccccc3c(=O)c2C)cc1`, for which the inhibition at 50 µM in series [1] came to 13%. Also, the inhibition entry in series [2] is “inactive”.
Regarding `Cc1c(C(=O)N[C@@H](Cc2ccccc2)C(=O)C(=O)NCCc2ccccc2)nc2ccccc2c1O`, the inhibition at 50 µM in series [1] worked out at 50%. For the same molecule, the inhibition at 25 µM in series [2] is 38%. In addition, the CC50 at 72 h in series [3] was greater than 200 µM; in series [4] it was 107 µM.
For `Cc1c(C(=O)N[C@@H](Cc2ccccc2)[C@@H](O)C(=O)NCc2ccccn2)[nH]c2ccccc2c1=O`, in series [1], the inhibition at 50 µM is 12%. Further, the inhibition result in series [2] is “inactive”.
Turning to `COc1ccc(CNC(=O)[C@H](O)[C@H](Cc2ccccc2)NC(=O)c2[nH]c3ccccc3c(=O)c2C)cc1OC`, in series [1], the inhibition at 50 µM amounted to 23%. Besides, the inhibition result in series [2] was “inactive”.

The record behind these values is ChEMBL document CHEMBL5385893, “Bestatin analogs-4-quinolinone hybrids as antileishmanial hits: Design, repurposing rational, synthesis, in vitro and in silico studies” (Eur J Med Chem, 2023).
